Format in all cases: biochemical
The target in test [1] is T1, human DGAT2 (Homo sapiens, UniProt Q96PD7).
T1 construct: made in house; host or cells: sf9 insect cells
T1 sequence (Q96PD7 1-388): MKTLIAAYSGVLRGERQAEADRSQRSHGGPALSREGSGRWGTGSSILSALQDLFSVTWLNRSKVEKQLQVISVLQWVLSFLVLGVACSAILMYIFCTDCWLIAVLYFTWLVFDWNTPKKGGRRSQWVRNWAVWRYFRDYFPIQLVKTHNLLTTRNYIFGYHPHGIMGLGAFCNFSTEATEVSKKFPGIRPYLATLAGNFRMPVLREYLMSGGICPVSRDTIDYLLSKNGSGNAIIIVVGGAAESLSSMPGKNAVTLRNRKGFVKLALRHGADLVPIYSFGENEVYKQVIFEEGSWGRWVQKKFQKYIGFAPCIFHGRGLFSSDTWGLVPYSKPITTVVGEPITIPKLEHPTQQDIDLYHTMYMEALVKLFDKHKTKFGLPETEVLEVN
In words: DGAT enzyme inhibition test, hDGAT2 enzyme from sf9 insect cells (DGAT2 selectivity). From the text: (§1) To investigate inhibitory effect of the compounds of Examples 1-33 against DGAT enzyme activity, DGAT enzyme inhibition and DGAT2 selectivity were investigated using zymogen including:
1) hDGAT1 and hDGAT2 enzymes, derived from insect cell overexpressing human DGAT1 and DGAT2 (‘sf9’), respectively,
(§2) To be specific, for the purpose of measuring human-derived DGAT enzyme inhibitory activity, using the zymogen, including enzymes derived from insect cell overexpressing human DGAT1 and DGAT2 (‘sf9’), microsomal protein isolated from human duodenal adenocarcinoma (‘Hutu 80’), and microsomal protein isolated from rat, and according to Coleman et al., (Methods Enzymol., 98-103, 1992), and substrate including 1,2-diacylglycerol(Sigma, D0138) and [^14C]palmitoyl-CoA (Amersham, CFA583), the amount of radiation of [^14C]triacylglycerol produced after enzymatic reaction was measured.
(§3) To be more specific, to the reaction solution containing 175 mM Tris-HCl (pH 8.0), 20 μl bovine serum albumin (10 mg/ml), 100 mM magnesium chloride, 30 μM [^14C]palmitoyl CoA (0.02 μCi, Amersham) and 200 μM 1,2-dioleoylglycerol, reagent dissolved in dimethylsulfoxide (10.0 μl) was added. After introducing 100 to 200 μg isolated microsomal protein and allowing the same to react at 25° C. for 10 min, the reaction was stopped by adding 1.5 ml stop solution (2-propanol:heptane:water=80:20:2, v:v:v). To isolate the product of the reaction (i.e., [^14C]triacylglycerol), 1 ml heptane and 0.5 ml distilled water were added and then decocted. After taking 1 ml supernatant, 2 ml alkaline ethanol solution (ethanol:0.5 N sodium hydroxide:water=50:10:40, v:v:v) were added and then decocted. After taking 0.65 ml supernatant from the decoction, the amount of radiation was measured with liquid scintillation counter (LSC). The DGAT inhibitory activity was calculated with Mathematical Expression 1 below:
(§4) T denotes cpm of experimental group in which the enzymatic reaction solution was treated with the sample,
(§5) C denotes cpm of control group in which the enzymatic reaction solution was not treated with the sample, and
(§6) B denotes cpm of control group treated with the sample without zymogen.

The target of test [2] is T2, hDGAT-1 (HuTu 80) (Homo sapiens, UniProt O75907).
T2 construct: microsomal protein isolated from human duodenal adenocarcinoma (‘Hutu 80’); endogenous in cells; host or cells: HuTu 80 human duodenal adenocarcinoma cells (microsomes)
T2 sequence (O75907 1-488): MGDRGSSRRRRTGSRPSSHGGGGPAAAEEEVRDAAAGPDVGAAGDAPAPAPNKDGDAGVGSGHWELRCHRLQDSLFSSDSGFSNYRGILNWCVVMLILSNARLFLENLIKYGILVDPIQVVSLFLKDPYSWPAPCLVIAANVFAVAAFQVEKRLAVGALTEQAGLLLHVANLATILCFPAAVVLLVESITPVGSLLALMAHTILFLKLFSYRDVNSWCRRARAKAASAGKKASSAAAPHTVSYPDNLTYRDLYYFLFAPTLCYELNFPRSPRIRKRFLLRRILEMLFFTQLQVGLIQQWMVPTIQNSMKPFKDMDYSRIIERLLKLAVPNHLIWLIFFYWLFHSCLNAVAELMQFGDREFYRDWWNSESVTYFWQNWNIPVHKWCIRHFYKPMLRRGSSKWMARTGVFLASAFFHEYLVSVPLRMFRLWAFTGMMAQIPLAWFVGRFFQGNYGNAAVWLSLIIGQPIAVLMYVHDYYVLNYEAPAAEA
Nature of the test: DGAT enzyme inhibition test, microsomal protein from human duodenal adenocarcinoma (Hutu 80). The conditions noted are these: microsomal protein from HuTu 80.
From the text: as §1
2) DGAT enzyme derived from human duodenal adenocarcinoma (‘Hutu 80’), and
as §2, §3, §4, §5, §6

Test [3] concerns the target T3, DGAT-1 (rat liver) (Rattus norvegicus, UniProt Q9ERM3).
T3 construct: microsomal protein isolated from rat; from tissue; host or cells: rat liver microsomes
T3 sequence (Q9ERM3 1-498): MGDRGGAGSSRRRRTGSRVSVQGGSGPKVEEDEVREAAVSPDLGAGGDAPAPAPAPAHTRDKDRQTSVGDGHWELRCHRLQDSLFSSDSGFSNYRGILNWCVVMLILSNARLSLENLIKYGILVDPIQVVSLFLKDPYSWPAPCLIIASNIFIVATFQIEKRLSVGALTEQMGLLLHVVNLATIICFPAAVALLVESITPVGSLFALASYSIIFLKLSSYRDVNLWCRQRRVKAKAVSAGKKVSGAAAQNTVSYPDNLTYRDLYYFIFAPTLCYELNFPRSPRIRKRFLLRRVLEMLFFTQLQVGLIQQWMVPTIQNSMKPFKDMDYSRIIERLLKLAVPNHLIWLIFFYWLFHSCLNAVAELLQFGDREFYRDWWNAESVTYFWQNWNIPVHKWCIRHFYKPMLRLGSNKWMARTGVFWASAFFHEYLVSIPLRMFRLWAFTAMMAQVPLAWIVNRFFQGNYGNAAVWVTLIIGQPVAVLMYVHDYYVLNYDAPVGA
Nature of the test: DGAT enzyme inhibition test, rat liver-derived DGAT enzyme. The conditions noted are these: rat liver microsomal protein.
From the text: as §1
3) rat liver-derived DGAT enzyme.
as §2, §3, §4, §5, §6

Where [4] appears, read: 10 μM, enzyme from sf9 cells overexpressing hDGAT2, read-out: hDGAT-2 (sf9) inhibition rate(%)at 10 μM.
The mark [5] stands for this setting: concentration of 10 μM, read-out: hDGAT2 inhibition.

SMILES strings stand for the structures. Where two headings read alike, the source gives them in different places.

For the compound `CC(C)N(NC(=O)c1ccc(Cl)cc1)C(=O)/C=C/c1cn(C(=O)OC(C)(C)C)c2ccccc12` [Example 14, (E)-tert-butyl 3-(3-(2-(4-chlorobenzoyl)-1-isopropylhydrazinyl)-3-oxoprop-1-enyl)-1H-indole-1-carboxylate], the inhibition at 10 µM in test [1] (setting [4]) is < 0%; in test [1] (setting [5]), < 11%. Further, the IC50 in test [2] came out at 2.7 µM; in test [3] it was 2.8 µM.
For `CC(C)N(NC(=O)c1ccccc1)C(=O)/C=C/c1cn(CC2CC2)c2ccccc12` [Example 28, (E)-N′-(3-(1-(cyclopropylmethyl)-1H-indol-3-yl)acryloyl)-N′-isopropylbenzohydrazide] the same measures were < 0%, < 11%, 8.1 µM and 2.9 µM.
The corresponding values for `CC(C)N(NC(=O)c1ccc(Br)cc1)C(=O)/C=C/c1cn(C(=O)OC(C)(C)C)c2ccccc12` [Example 13, (E)-tert-butyl 3-(3-(2-(4-bromobenzoyl)-1-isopropylhydrazinyl)-3-oxoprop-1-enyl)-1H-indole-1-carboxylate] are 2.3%, < 11%, 8.1 µM and 9.1 µM.
The corresponding values for `CC(C)N(NC(=O)c1ccccc1)C(=O)/C=C/c1cn(C(=O)CC(C)(C)C)c2ccccc12` [Example 33, (E)-N′-(3-(1-(3,3-dimethylbutanoyl)-1H-indol-3-yl)acryloyl)-N′-isopropylbenzohydrazide] are < 0%, < 11%, 2.1 µM and 1.4 µM.
For the compound `CC(C)N(NC(=O)c1cccc(Br)c1)C(=O)/C=C/c1cn(C(=O)OC(C)(C)C)c2ccccc12` [Example 12, (E)-tert-butyl 3-(3-(2-(3-bromobenzoyl)-1-isopropylhydrazinyl)-3-oxoprop-1-enyl)-1H-indole-1-carboxylate], the inhibition at 10 µM in test [1] (setting [4]) was 3.9%; in test [1] (setting [5]) it was < 11%. For the same compound, the IC50 stood at 2.6 µM in test [2] and 1.7 µM in test [3].
With `COc1ccc(C(=O)NN(C(=O)/C=C/c2cn(C(=O)OC(C)(C)C)c3ccccc23)C(C)C)cc1` [Example 7, (E)-tert-butyl 3-(3-(1-isopropyl-2-(4-methoxybenzoyl)hydrazinyl)-3-oxoprop-1-enyl)-1H-indole-1-carboxylate], in test [1] (setting [4]), the inhibition at 10 µM is < 0%. Moreover, the values for the 50% inhibitory concentration (IC50) in test [2] and in test [3] were 11.6 µM and 8.7 µM, respectively.
The corresponding values for `CC(=O)n1cc(/C=C/C(=O)N(NC(=O)c2ccccc2)C(C)C)c2ccccc21` [Example 30, (E)-N′-(3-(1-acetyl-1H-indol-3-yl)acryloyl)-N′-isopropylbenzohydrazide] are < 0%, 27 µM and 22.5 µM.
For `COCCOc1cccc(C(=O)NN(C(=O)/C=C/c2cn(C(=O)OC(C)(C)C)c3ccccc23)C(C)C)c1` [Example 10, (E)-tert-butyl 3-(3-(1-isopropyl-2-(3-(2-methoxyethoxy)benzoyl)hydrazinyl)-3-oxoprop-1-enyl)-1H-indole-1-carboxylate], the inhibition at 10 µM was 8.3% in test [1] (setting [4]) and < 11% in test [1] (setting [5]). Besides, the figures for the concentration for half-maximal inhibition (IC50) in test [2] and in test [3] were 7.7 µM and 2.6 µM, respectively.
Take `CC(C)N(NC(=O)c1ccccc1)C(=O)CCc1cn(C(=O)OC(C)(C)C)c2ccccc12` [Example 24, tert-butyl 3-(3-(2-benzoyl-1-isopropylhydrazinyl)-3-oxopropyl)-1H-indole-1-carboxylate]: the inhibition at 10 µM in test [1] (setting [4]) is < 0%. The values for the half-maximal inhibitory concentration (IC50) in test [2] and in test [3] were 9.2 µM and 8.6 µM, respectively.
In the case of `CC(C)N(NC(=O)c1ccc(O)cc1)C(=O)/C=C/c1cn(C(=O)OC(C)(C)C)c2ccccc12` [Example 5, (E)-tert-butyl 3-(3-(2-(4-hydroxybenzoyl)-1-isopropylhydrazinyl)-3-oxoprop-1-enyl)-1H-indole-1-carboxylate], the inhibition at 10 µM is < 0% in test [1] (setting [4]) and < 11% in test [1] (setting [5]). For the same compound, the values for the 50% inhibitory concentration (IC50) in test [2] and in test [3] were 6.6 µM and 16.3 µM, respectively.
For the compound `CC(C)N(NC(=O)c1cccc(O)c1)C(=O)/C=C/c1cn(C(=O)OC(C)(C)C)c2ccccc12` [Example 4, (E)-tert-butyl 3-(3-(2-(3-hydroxybenzoyl)-1-isopropylhydrazinyl)-3-oxoprop-1-enyl)-1H-indole-1-carboxylate], the inhibition at 10 µM in test [1] (setting [4]) is < 0%. Besides, the results for the IC50 in test [2] and in test [3] were 12.4 µM and 22.4 µM, respectively.
Consider `CC(C)N(NC(=O)c1ccccc1)C(=O)/C=C/c1cn(C)c2ccccc12` [Example 25], for which the inhibition at 10 µM in test [1] (setting [4]) was < 0%. In addition, the IC50 in test [2] came out at 29.2 µM; in test [3], 9.3 µM.
For `CC(C)N(NC(=O)c1ccccc1)C(=O)/C=C/c1cn(C(=O)C(C)(C)C)c2ccccc12` [Example 31, (E)-N′-isopropyl-N′-(3-(1-pivaloyl-1H-indol-3-yl)acryloyl)benzohydrazide], the results for the inhibition at 10 µM in test [1] (setting [4]) and in test [1] (setting [5]) were 4.4% and < 11%, respectively. Besides, the results for the IC50 in test [2] and in test [3] were 5.1 µM and 3.4 µM, respectively.
On to `CC(C)=CCn1cc(/C=C/C(=O)N(NC(=O)c2ccccc2)C(C)C)c2ccccc21` [Example 27, (E)-N′-isopropyl-N′-(3-(1-(3-methylbut-2-enyl)-1H-indol-3-yl)acryloyl)benzohydrazide], for which the inhibition at 10 µM is 1.2% in test [1] (setting [4]) and < 11% in test [1] (setting [5]). Also, the figures for the IC50 in test [2] and in test [3] were 2.6 µM and 0.5 µM, respectively.
For `CC(C)N(NC(=O)c1ccccc1)C(=O)/C=C/c1cn(C(=O)c2ccccc2)c2ccccc12` [Example 32, (E)-N′-(3-(1-benzoyl-1H-indol-3-yl)acryloyl)-N′-isopropylbenzohydrazide] the same measures were 11%, < 11%, 0.97 µM and 0.7 µM.
For `CC(C)N(NC(=O)c1ccccc1)C(=O)/C=C/c1c[nH]c2ccccc12` [Example 22, (E)-N′-(3-(1H-indol-3-yl)acryloyl)-N′-isopropylbenzohydrazide], the inhibition at 10 µM in test [1] (setting [4]) was < 0%. Moreover, the 50% inhibitory concentration (IC50) was found to be 44.6 µM in test [2] and 33 µM in test [3].

Values taken from patent US8906952B2, “Indole derivative or pharmaceutically acceptable salt thereof, preparation method thereof, and pharmaceutical composition for preventing or treating metabolic diseases containing same as active ingredient” (Korea Research Institute of Bioscience and Biotechnology, priority 2011, dated 2014).
